Data on two molecules can be found in patent publication US8207142B2, “Inhibitor of DNA methylation” (priority 2001, dated 2012).

In data set [1] the test system is p16 exon 2. Put plainly: Ms-SNuPE quantitation of DNA methylation in T24 cells, p16 exon 2. In kind it is cell-based, human. The settings on record: 3 μM, 24 hrs. As for the experimental part: (§1) The average methylation at defined CpG sites was quantitated using a Ms-SNuPE assay, as described by Gonzalgo and Jones (Nucleic Acids Res. 25:2529-2531, 1997) and U.S. Pat. No. 6,251,594. Briefly, genomic DNA (˜4 μg) was digested overnight with 4 units of EcoRI (Boehringer Mannheim) (p16 promoter/exon 1 and p16 exon 2; FIG. 9A) or with 4 units of RsaI (Boehringer Mannheim) (P3; FIG. 9B) to cut outside the region of interest.
(§2) After standard treatment with sodium bisulfite, a PCR product of the region was generated as template for top-strand methylation analysis. The sequences of the primers used for bisulfite-treated DNA amplification were as follows: […]
p16 exon 2: 94° C. for 3 minutes, 94° C. for 1 minute, 62° C. for 45 seconds, and 72° C. for 45 seconds for 40 cycles, with a final extension step at 72° C. for 10 minutes.
(§3) Duplicates of 4 μl of template were then added to 6 μl of mixture consisting of 1× PCR buffer, 1 μM final concentration primers, 1 μCi of [^32P]dCTP or dTTP, and 1 unit 1:1 Taq/TaqStart antibody (Clontech, Palo Alto, Calif.). Single nucleotide extension involved incubation at 95° C. for 1 minute, then 50° C. for 2 minutes, and finally 72° C. for 1 minute (p16 promoter/exon1 and P16 exon 2) and 95° C. for 1 minute, then 46° C. for 30 seconds, and finally 72° C. for 20 seconds (P3). The sequences for SNuPE primers were as follows: […]
(§4) After briefly spinning down the tubes, 4 μl of stop solution were added to the 10-μl reaction volume, and the samples were boiled for 5 minutes at 95° C. before loading 1.5 μl onto a 15% denaturing polyacrylamide gel (7 M urea). The gel was run at 90 W for 1.5 hours and then dried at 80° C. for 40 minutes. The gel was exposed to a phosphorimaging cassette for quantitation of the ratio of [^32P]dCTP versus [^32P]dTTP incorporation, and the quantitation of the percent methylation was averaged from three separate CpG sites. The gel was then exposed to BioMax MR film (Kodak) to record experimental results.

In data set [2] the test system is T24 cells. Put plainly: Colony-formation assay (decrease in plating efficiency) in T24 cells. In kind it is cell-based, human. The conditions noted are these: 3 μM, 24 hrs. As for the experimental part:
(§5) The percentage cell survival was assessed by dividing the mean colony number on the treated plates divided by the mean colony number on the untreated plates ×100.

The subject of data set [3] is p16 promoter. Nature of the data set: Ms-SNuPE quantitation of DNA methylation in T24 cells, p16 promoter. In kind it is cell-based, human. The conditions noted are these: 3 μM, 24 hrs; control 96. As for the experimental part: as §1, §2
p16 promoter/exon 1: 94° C. for 3 minutes, 94° C. for 45 seconds, 67° C. for 45 seconds, and 72° C. for 45 seconds for 40 cycles, with a final extension step at 72° C. for 10 minutes.
as §3, §4

In data set [4] the test system is 10T1/2 cells. Nature of the data set: Colony-formation assay (plating efficiency) in 10T1/2 cells. In kind it is cell-based, mouse. As for the experimental part:
as §5

Data set [5] deals with 10T1/2 cells. Put plainly: Induction of a myogenic phenotype (myotube formation) in 10T1/2 cells. Set-up: key to Muscle Formation: + representing minimal muscle formation; scored for muscle cells 9-10 days later as + to +++; +++ representing maximal muscle formation. In kind it is cell-based, mouse. As for the experimental part: Cells were plated (3×10^5 cells/100-mm dish) and treated 24 hours later with the indicated concentrations of compounds. The medium was either changed 24 hours or 48 hours after drug treatment. Myotube formation was assayed in 10T1/2 cells as previously described (Constantinides et al., Nature 267:364-366, 1977). […] The ability of Zebularine to cause 10T1/2 cells to undergo the myogenic switch was therefore tested (FIG. 7).

The test system of data set [6] is p16 gene expression in T24 cells. Put plainly: RT-PCR analysis of p16 expression in T24 cells. In kind it is cell-based, human. The settings on record: 3 μM. As for the experimental part: The T24 cell line was obtained from the American Type Culture Collection (Rockville, Md.) and cultured in DMEM supplemented with 10% heat-inactivated fetal calf serum and 100 U/ml penicillin-streptomycin. Cultures were grown in a humidified incubator at 37° C. in an atmosphere of 5% CO2 in air.
Cells were plated (3×10^5 cells/100-mm dish) and treated 24 hours later with the indicated concentrations of compounds. The medium was either changed 24 hours or 48 hours after drug treatment.
DNA and RNA were isolated three days after treatment using the NucleoBond RNA/DNA Midi Kit (Clontech Laboratories, Inc., Palo Alto, Calif.).
Total RNA (˜10 μg) was reverse-transcribed using the following reagents: 100 units RNAsin (Promega Corp., Madison, Wis.), 0.1 M DTT (Life Technologies, Inc.), 1000 units of MMLV-RT (Life Technologies, Inc.), 1 mM deoxynucleotide triphosphates (Boehringer Mannheim, Germany), 75 μg/ml BSA, 1× MMLV-RT buffer (Life Technologies, Inc.), and 0.025 ODU Random Hexamers (Amersham-Pharmacia Biotech, Piscataway, N.J.). The reaction mixture was incubated for 10 minutes at 25° C., 45 minutes at 42° C., 3 minutes at 90° C., and chilled for 5 minutes at 4° C., during which time 1.25 μl of MMLV-RT (200 U/μl) were added and the sample then incubated for 45 minutes at 42° C., 10 minutes at 75° C., and stored at −20° C.
cDNA was amplified with primers specific for either p16 or GAPDH. Briefly, PCR reactions were performed in 25-μl volumes at 94° C. for 3 minutes, 28 cycles at 94° C. for 1 minute, 56° C. for 30 seconds, 72° C. for 40 seconds, and a final extension step at 72° C. for 5 min (p16 amplification), and 94° C. for 1 minute, 19 cycles at 94° C. for 1 minute, 58° C. for 30 seconds, 72° C. for 45 seconds, and a final extension step at 72° C. for 2 minutes (GAPDH amplification).
PCR amplifications were performed with cDNA template concentration equivalent to 100 ng of RNA in 10% DMSO. All reactions were analyzed in the linear range of amplification. PCR products were resolved on 2% agarose gels and subsequently transferred to a nylon membrane (Zetaprobe; Bio-Rad, Richmond, Calif.) under alkaline conditions. All blots were hybridized with a γ-^32P-labeled internal oligonucleotide probe, using protocols previously described (Xiong and Laird, Nuc. Acids Res. 25:2532-2534, 1997).
Since 5-Aza-CdR has been shown previously to induce p16 expression in a dose-dependent manner (Bender et al., Cancer Res. 58:95-101, 1998), the two ribonucleoside analogs 5-Aza-CR and Zeb were examined to determine their abilities to induce p16 expression (FIG. 8). Because Zeb is stable in aqueous solution, the effect of prolonging Zeb treatment on p16 expression was tested by treating these cells with different concentrations of Zeb for either 24 hours or 48 hours. RT-PCR was then performed to determine whether p16 gene was induced by drug treatment.

For data set [7], the system named is p3 locus. Put plainly: Ms-SNuPE quantitation of DNA methylation in 10T1/2 cells. The settings on record: 0.3 μM, 24 hours, control 86. In kind it is cell-based, mouse. As for the experimental part: as §1, §2
P3: 95° C. for 2 minutes, 95° C. for 1 minute, 50° C. for 50 seconds, and 72° C. for 1 minute for 40 cycles, with a final extension at 72° C. for 10 minutes.
as §3, §4

The subject of data set [8] is DNA methylation of the am^RIP and ψ63 sequences. Nature of the data set: Southern blot analysis of DNA methylation in N. crassa (Dpn II vs Sau3AI digests). The settings on record: 12 and 24 μM 5-AC; 0.33 and 3.3 μM TSA; 20, 39, 78, 160 and 310 μM Zebularine. In kind it is cell-based, Neurospora crassa. As for the experimental part:
DNA was digested with Dpn II (D) or Sau3AI (S), fractionated by gel electrophoresis, transferred to a membrane and probed for am (FIG. 4A) or ψ63 (FIG. 4B) sequences. Dpn II and Sau3AI both recognize the sequence GATC, but Sau3AI fails to cleave if the C residue is methylated. Thus, differences between S and D lanes are indicative of DNA methylation.
The ramp symbols at the top of the figure represent increasing concentrations of drug. Drug concentrations were 12 and 24 μM 5-AC; 0.33 and 3.3 μM TSA; and 20, 39, 78, 160 and 310 μM Zebularine. The positions of selected size standards (kb) are indicated.
Southern hybridizations were performed on DNA samples (−1 μg) isolated from liquid cultures inoculated with 7×10^4 conidia/ml. DNA was digested with Dpn II (D) or Sau3AI (S), fractionated by gel electrophoresis, transferred to a nylon membrane and probed for am^RIP (FIG. 4A) or ψ63 (FIG. 4B) sequences. The restriction endonucleases Dpn II and-Sau3AI both recognize the sequence GATC, but Sau3AI fails to cleave if the C residue is methylated. Drug concentrations were […] 5-AC, 0.33 and 3.3 μM TSA, and […] Zebularine.
The positions of selected size standards (kb) and the origin (ori) are indicated. […] Differences between S and D lanes are indicative of DNA methylation.

Values joined by “and” are separate entries in the source; they are usually repeats but may differ in a detail not shown here. Identical values can stand only once.

Take `Nc1ncn([C@H]2C[C@H](O)[C@@H](CO)O2)c(=O)n1` [5-Aza-CdR, 5-aza-2′-deoxycytidine]: the “Relative p16 Exon 2 De-methylation (%)” value in data set [1] is listed as 47 +/− 1%. Moreover, in data set [1] (control 96), the “p16 Exon 2 Methylation (%)” value is 51 +/− 1%. The “Toxicity (%) (decrease in plating efficiency)” value in data set [2] came out at 75%. Further, in data set [3], the “p16 Promoter Methylation (%)” value is 52% and 52 +/− 5%. Moreover, the “decrease in plating deficiency (cytotoxicity)” value in data set [4] (0.3 μM, 10T1/2 cells) came out at 74%. The “Ave. Plating Efficiency (%)” value in data set [4] (0.3 μM, 250 cells, stained after 14-16 days, control 22) is recorded as 5%. For the same molecule, the cell death observed entry in data set [4] (10T1/2 cells, 0.3 μM 5-Aza-CdR, 3 μM 5-Aza-CR, 30 μM Zebularine) is reported as “appreciable cell death”. In data set [5] (0.3 μM, 24 hours treatment, scored 9-10 days later), the “Muscle Formation” value was “+++”. Moreover, the “muscle formation (micrographs, in words)” value in data set [5] (10T1/2 cells, approximately 9-10 days after drug treatment) is “formed multinucleated myotubes”. The “p16 expression (RT-PCR)” value in data set [6] is listed as “robust expression of p16”. The “% Methylation” value in data set [7] was 54% and 54 +/− 5%.
On to `CC(/C=C/C(=O)NO)=C\[C@@H](C)C(=O)c1ccc(N(C)C)cc1` [TSA, trichostatin A], for which, in data set [8], the “effect on DNA methylation (Southern blot)” value was “selective inhibition of methylation”.
